Values joined by “and” are separate entries in the source; they are usually repeats but may differ in a detail not shown here. Equal values may be shown once. Inconclusive results and toxic doses are left out. Rule for the calls: active = survival T/C of 150% or more; inactive = T/C below 125% in these data.
Tested on: CD2F1 mice, L1210 leukemia ip, survival T/C
Assay: NCI In Vivo Anticancer Drug Screen. Data for tumor model L1210 Leukemia (intraperitoneal) in CD2F1 (CDF1) mice
Settings: higher = longer survival
Method in brief: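 Antitumor effect is scored in animals hosting a serially transplanted tumor. Values compare compound-dosed animals against vehicle-only controls as a simple quotient.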

[1] = endpoint: mean survival time, dose: 100.0 mg/kg/injection, schedule: Q04DX003 (ip), vehicle: saline with Tween-80
[2] = endpoint: mean survival time, dose: 200.0 mg/kg/injection, schedule: Q04DX003 (ip), vehicle: saline with Tween-80
[3] = endpoint: mean survival time, dose: 400.0 mg/kg/injection, schedule: Q04DX003 (ip), vehicle: saline with Tween-80
[4] = endpoint: mean survival time, dose: 50.0 mg/kg/injection, schedule: Q01DX009 (ip), vehicle: Klucel (hydroxypropylcellulose) (HPC)
[5] = endpoint: mean survival time, dose: 100.0 mg/kg/injection, schedule: Q01DX009 (ip), vehicle: Klucel (hydroxypropylcellulose) (HPC)
[6] = endpoint: mean survival time, dose: 200.0 mg/kg/injection, schedule: Q01DX009 (ip), vehicle: Klucel (hydroxypropylcellulose) (HPC)
[7] = endpoint: mean survival time, dose: 100.0 mg/kg/injection, schedule: Q01DX009 (ip), vehicle: saline
[8] = endpoint: mean survival time, dose: 100.0 mg/kg/injection, schedule: Q01DX009 (ip), vehicle: saline with Tween-80
[9] = endpoint: mean survival time, dose: 200.0 mg/kg/injection, schedule: Q01DX009 (ip), vehicle: saline with Tween-80
[10] = endpoint: mean survival time, dose: 400.0 mg/kg/injection, schedule: Q01DX009 (ip), vehicle: saline with Tween-80
[11] = endpoint: mean survival time, dose: 6.25 mg/kg/injection, schedule: Q01DX009 (ip), vehicle: saline with Tween-80
[12] = endpoint: mean survival time, dose: 12.5 mg/kg/injection, schedule: Q01DX009 (ip), vehicle: saline with Tween-80
[13] = endpoint: mean survival time, dose: 12.5 mg/kg/injection, schedule: Q04DX003 (ip), vehicle: saline with Tween-80
[14] = endpoint: mean survival time, dose: 25.0 mg/kg/injection, schedule: Q01DX001 (ip), vehicle: saline with Tween-80
[15] = endpoint: mean survival time, dose: 50.0 mg/kg/injection, schedule: Q01DX001 (ip), vehicle: saline with Tween-80
[16] = endpoint: mean survival time, dose: 100.0 mg/kg/injection, schedule: Q01DX001 (ip), vehicle: saline with Tween-80
[17] = endpoint: mean survival time, dose: 200.0 mg/kg/injection, schedule: Q01DX001 (ip), vehicle: saline with Tween-80

Measured: T/C

C/C=C(\C)C(=O)N/N=C\c1cc(Cl)cc(Cl)c1O
inactive: endpoint: mean survival time, dose: 12.5 mg/kg/injection, schedule: Q01DX009 (ip), vehicle: olive oil, sesame oil, peanut oil 100 % of control | endpoint: mean survival time, dose: 25.0 mg/kg/injection, schedule: Q01DX009 (ip), vehicle: olive oil, sesame oil, peanut oil 96 % of control | endpoint: mean survival time, dose: 50.0 mg/kg/injection, schedule: Q01DX009 (ip), vehicle: olive oil, sesame oil, peanut oil 94 % of control | endpoint: mean survival time, dose: 100.0 mg/kg/injection, schedule: Q01DX009 (ip), vehicle: olive oil, sesame oil, peanut oil 98 % of control | endpoint: mean survival time, dose: 200.0 mg/kg/injection, schedule: Q01DX009 (ip), vehicle: olive oil, sesame oil, peanut oil 98 % of control | endpoint: mean survival time, dose: 400.0 mg/kg/injection, schedule: Q01DX009 (ip), vehicle: olive oil, sesame oil, peanut oil 100 % of control

COC(=O)CC1CCS(=O)(=O)C1 (stereo unspecified)
inactive: [1] 98 % of control | [2] 93 % of control | [3] 92 % of control

CC1(Br)C(Sc2ccccc2[N+](=O)[O-])=Nc2ccccc21 (stereo unspecified)
inactive: [4] 94 % of control | [5] 94 % of control | [6] 94 % of control

CC1(C)N=C(N)N=C(N)N1c1cccc(CC(=O)Nc2ccc(S(=O)(=O)F)cc2)c1
inactive: endpoint: mean survival time, dose: 50.0 mg/kg/injection, schedule: Q01DX009 (ip), vehicle: saline 120 % of control | [7] 117 % of control | endpoint: mean survival time, dose: 300.0 mg/kg/injection, schedule: Q01DX009 (ip), vehicle: saline 120 % of control

O=[N+]([O-])c1ccc2c(c1)CS(=O)(=O)O2
inactive: [8] 109 % of control | [1] 103 % of control | [9] 107 % of control | [2] 100 % of control | [10] 107 % of control | [3] 95 % of control

NC1=NC(=O)/C(=C/c2ccccc2)S1
inactive: [1] 93 % of control | [2] 97 % of control | [3] 97 % of control

COc1ccccc1C(O)(c1ccccc1OC)c1c(OC)cccc1OC
inactive: [8] 97 % of control | [9] 93 % of control | [10] 88 % of control

O=C1CN(CCN2CC(=O)N(C(=O)c3ccccc3)C2=S)C(=S)N1Cc1ccccc1
inactive: endpoint: mean survival time, dose: 50.0 mg/kg/injection, schedule: Q01DX009 (ip), vehicle: saline with Tween-80 96 % of control | [8] 96 % of control | [9] 96 % of control

Cc1cc(NCCN(C(C)C)C(C)C)nc(Nc2nc3cc(Cl)c(Cl)cc3[nH]2)n1
inactive: [11] 100 % of control | [12] 105 % of control | endpoint: mean survival time, dose: 25.0 mg/kg/injection, schedule: Q01DX009 (ip), vehicle: saline with Tween-80 92 % of control | [1] 87 % of control

CC[N+](CC)(CC)CC
inactive: endpoint: mean survival time, dose: 0.37 mg/kg/injection, schedule: Q01DX009 (ip), vehicle: saline with Tween-80 110 % of control | endpoint: mean survival time, dose: 0.75 mg/kg/injection, schedule: Q01DX009 (ip), vehicle: saline with Tween-80 96 % of control | endpoint: mean survival time, dose: 1.5 mg/kg/injection, schedule: Q01DX009 (ip), vehicle: saline with Tween-80 96 % of control | endpoint: mean survival time, dose: 3.0 mg/kg/injection, schedule: Q01DX009 (ip), vehicle: saline with Tween-80 100 % of control | endpoint: mean survival time, dose: 6.0 mg/kg/injection, schedule: Q01DX009 (ip), vehicle: saline with Tween-80 110 % of control | endpoint: mean survival time, dose: 6.25 mg/kg/injection, schedule: Q04DX003 (ip), vehicle: saline with Tween-80 100 % of control | endpoint: mean survival time, dose: 12.0 mg/kg/injection, schedule: Q01DX009 (ip), vehicle: saline with Tween-80 96 % of control | [12] 88 % of control | [13] 100 % of control

O/N=C1\CCCCC\C1=N/O.O/N=C1\CCCCC\C1=N/O.[Pt]
inactive: endpoint: mean survival time, dose: 3.13 mg/kg/injection, schedule: Q04DX003 (ip), vehicle: dextrose 104 % of control | endpoint: mean survival time, dose: 6.25 mg/kg/injection, schedule: Q04DX003 (ip), vehicle: dextrose 108 % of control | endpoint: mean survival time, dose: 12.5 mg/kg/injection, schedule: Q04DX003 (ip), vehicle: dextrose 98 % of control | endpoint: mean survival time, dose: 25.0 mg/kg/injection, schedule: Q04DX003 (ip), vehicle: dextrose 98 % of control and 101 % of control | endpoint: mean survival time, dose: 50.0 mg/kg/injection, schedule: Q04DX003 (ip), vehicle: dextrose 95 % of control and 106 % of control | endpoint: mean survival time, dose: 100.0 mg/kg/injection, schedule: Q04DX003 (ip), vehicle: dextrose 103 % of control | endpoint: mean survival time, dose: 200.0 mg/kg/injection, schedule: Q04DX003 (ip), vehicle: dextrose 96 % of control and 98 % of control

Cc1ccc(N=C(N)NC#N)cc1
inactive: [8] 91 % of control | [9] 93 % of control | [10] 91 % of control

C[n+]1c2ccccc2cc2ccccc21
inactive: endpoint: mean survival time, dose: 12.0 mg/kg/injection, schedule: Q04DX003 (ip), vehicle: saline 102 % of control | endpoint: mean survival time, dose: 25.0 mg/kg/injection, schedule: Q04DX003 (ip), vehicle: saline 98 % of control

CC(=O)Oc1ccc([N+](=O)[O-])cc1[N+](=O)[O-]
inactive: endpoint: mean survival time, dose: 25.0 mg/kg/injection, schedule: Q04DX002 (ip), vehicle: Klucel (hydroxypropylcellulose) (HPC) 93 % of control

COC1CC2C[CH]([Hg][Cl])C1C2 (stereo unspecified)
inactive: endpoint: mean survival time, dose: 0.75 mg/kg/injection, schedule: Q01DX009 (ip), vehicle: saline 106 % of control | endpoint: mean survival time, dose: 1.5 mg/kg/injection, schedule: Q01DX009 (ip), vehicle: saline 106 % of control | endpoint: mean survival time, dose: 3.0 mg/kg/injection, schedule: Q01DX009 (ip), vehicle: saline 103 % of control | endpoint: mean survival time, dose: 3.13 mg/kg/injection, schedule: Q01DX009 (ip), vehicle: saline with Tween-80 97 % of control | [11] 103 % of control

O=[N+]([O-])c1ccc(CSCc2ccc([N+](=O)[O-])cc2)cc1
inactive: endpoint: mean survival time, dose: 50.0 mg/kg/injection, schedule: Q04DX003 (ip), vehicle: Klucel (hydroxypropylcellulose) (HPC) 98 % of control | endpoint: mean survival time, dose: 100.0 mg/kg/injection, schedule: Q04DX003 (ip), vehicle: Klucel (hydroxypropylcellulose) (HPC) 92 % of control | endpoint: mean survival time, dose: 200.0 mg/kg/injection, schedule: Q04DX003 (ip), vehicle: Klucel (hydroxypropylcellulose) (HPC) 97 % of control

O=C1c2ccccc2C(=O)N1Cc1cc([N+](=O)[O-])ccc1Cl
inactive: [4] 92 % of control | [5] 94 % of control | [6] 90 % of control

COc1cc(OC)c(/C=C/c2cc3c4ccccc4ccc3[n+](C)c2)c(OC)c1
inactive: endpoint: mean survival time, dose: 12.5 mg/kg/injection, schedule: Q01DX001 (ip), vehicle: saline with Tween-80 104 % of control | [14] 112 % of control | [15] 101 % of control | [16] 94 % of control

NC(=O)c1csc(COC(CO)CO)n1
inactive: endpoint: median survival time, dose: 15.38 mg/kg/injection, schedule: Q01DX009 (ip), vehicle: water 93 % of control | endpoint: median survival time, dose: 30.75 mg/kg/injection, schedule: Q01DX009 (ip), vehicle: water 97 % of control | endpoint: median survival time, dose: 61.5 mg/kg/injection, schedule: Q01DX009 (ip), vehicle: water 101 % of control | endpoint: median survival time, dose: 123.0 mg/kg/injection, schedule: Q01DX009 (ip), vehicle: water 100 % of control

CCOc1ccc(OCC)c(NC(=O)c2ccccc2)c1
inactive: [8] 98 % of control | [9] 107 % of control | [10] 100 % of control

COc1ccc(/C=C/C(CC(NO)c2ccc(OC)cc2)=N/O)cc1 (stereo unspecified)
inactive: [13] 101 % of control | [14] 103 % of control | endpoint: mean survival time, dose: 25.0 mg/kg/injection, schedule: Q04DX003 (ip), vehicle: saline with Tween-80 101 % of control | [15] 104 % of control | endpoint: mean survival time, dose: 50.0 mg/kg/injection, schedule: Q04DX003 (ip), vehicle: saline with Tween-80 102 % of control | [1] 95 % of control | [17] 97 % of control | [2] 98 % of control

CC1CC(C)(C)N=C(C2(c3ccccc3)CCC2)O1 (stereo unspecified)
inactive: [16] 101 % of control | endpoint: mean survival time, dose: 100.0 mg/kg/injection, schedule: Q04DX002 (ip), vehicle: saline with Tween-80 101 % of control | [17] 111 % of control | endpoint: mean survival time, dose: 200.0 mg/kg/injection, schedule: Q04DX002 (ip), vehicle: saline with Tween-80 93 % of control | endpoint: mean survival time, dose: 400.0 mg/kg/injection, schedule: Q01DX001 (ip), vehicle: saline with Tween-80 98 % of control | endpoint: mean survival time, dose: 400.0 mg/kg/injection, schedule: Q04DX002 (ip), vehicle: saline with Tween-80 93 % of control

CC1COC(=O)O1 (stereo unspecified)
inactive: [7] 101 % of control | [1] 97 % of control | endpoint: mean survival time, dose: 200.0 mg/kg/injection, schedule: Q01DX009 (ip), vehicle: saline 98 % of control | [2] 97 % of control | endpoint: mean survival time, dose: 400.0 mg/kg/injection, schedule: Q01DX009 (ip), vehicle: saline 101 % of control | [3] 96 % of control

COc1ccc(NC(=O)N(CCO)c2ccccc2)c(Cl)c1
inactive: [4] 107 % of control | [5] 104 % of control | [6] 107 % of control
